Experiment [1] deals with Myeloid Cell Leukemia 1 (Mcl-1) (Homo sapiens (Human), UniProt Q07820). Nature of the experiment: Terbium labeled Mcl-1 HTRF binding assay, displacement of Cy5-labeled BIM BH3 peptide. The settings on record: 25 pM Tb-Mcl-1, 8 nM Cy5 Bim peptide, 60 minutes at room temperature, read-out: Tb-MCL1 Ki. The protocol: Terbium labeled Myeloid Cell Leukemia 1 (Mcl-1) homogeneous time-resolved fluorescence (HTRF) binding assay utilizing the BIM BH3 peptide (H2N—(C/Cy5Mal) WIAQELRRIGDEFN-OH) as the binding partner for Mcl-1.
Chain of Myeloid Cell Leukemia 1 (Mcl-1) (Q07820 whole entry, the tested form may be a part): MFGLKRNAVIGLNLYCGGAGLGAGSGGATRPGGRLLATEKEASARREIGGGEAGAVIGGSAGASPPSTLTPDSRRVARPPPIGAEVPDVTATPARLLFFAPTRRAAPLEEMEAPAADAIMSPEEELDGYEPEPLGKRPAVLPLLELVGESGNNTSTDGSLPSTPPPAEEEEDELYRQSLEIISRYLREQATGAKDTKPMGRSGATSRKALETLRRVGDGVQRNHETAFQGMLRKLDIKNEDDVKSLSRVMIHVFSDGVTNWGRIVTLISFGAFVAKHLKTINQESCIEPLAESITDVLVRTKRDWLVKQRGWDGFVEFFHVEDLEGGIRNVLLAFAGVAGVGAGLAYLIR
This assay evaluated inhibition of the BH3 domain: Mcl-1 interaction by measuring the displacement of Cy5-labeled BIM BH3 peptide (H2N—(C/Cy5Mal) WIAQELRRIGDEFN-OH) in the HTRF assay format.
The following assay and stock buffers were prepared for use in the assay: (a) Stock buffer: 10 mM Tris-HCl, pH=7.5+150 mM NaCl, filtered, sterilized, and stored at 4° C.; and (b) 1× assay buffer, where the following ingredients were added fresh to stock buffer: 2 mM dithiothreitol (DTT), 0.0025% Tween-20, 0.1 mg/mL bovine serum albumin (BSA). The 1×Tb-Mcl-1+Cy5 Bim peptide solution was prepared by diluting the protein stock solution using the 1× assay buffer (b) to 25 pM Tb-Mcl-1 and 8 nM Cy5 Bim peptide.
Using the Acoustic ECHO, 100 nL of 100× test compound(s) were dispensed into individual wells of a white 384-well Perkin Elmer Proxiplate, for a final compound concentration of 1× and final DMSO concentration of 1%. Inhibitor control and neutral control (NC, 100 nL of 100% DMSO) were stamped into columns 23 and 24 of assay plate, respectively. Into each well of the plate was then dispensed 10 μL of the 1×Tb-Mcl-1+Cy5 Bim peptide solution. The plate was centrifuged with a cover plate at 1000 rpm for 1 minute, then incubated for 60 minutes at room temperature with plates covered.
The TR-FRET signal was read on an BMG PHERAStar FSX MicroPlate Reader at room temperature using the HTRF optic module (HTRF: excitation: 337 nm, light source: laser, emission A: 665 nm, emission B: 620 nm, integration start: 60 μs, integration time: 400 μs).
The BMG PHERAStar FSX MicroPlate Reader was used to measure fluorescence intensity at two emission wavelengths—665 nm and 620 nm—and report relative fluorescence units (RFU) for both emissions, as well as a ratio of the emissions (665 nm/620 nm)*10,000. The RFU values were normalized to percent inhibition as follows:
% inhibition(((NC−IC)−(compound−IC))/(NC−IC))*100
where IC (inhibitor control, low signal)=mean signal of 1× Tb-MCl-1+Cy5 Bim peptide+inhibitor control or 100% inhibition of Mcl-1; NC (neutral control, high signal)=mean signal 1×Tb-MCl-1+Cy5 Bim peptide with DMSO only or 0% inhibition
An 11-point dose response curve was generated to determine IC50 values (using GenData) based on the following equation:
where Y=% inhibition in the presence of X inhibitor concentration; Top=100% inhibition derived from the IC (mean signal of Mcl-1+inhibitor control); Bottom=0% inhibition derived from the NC (mean signal of Mcl-1+DMSO); Hillslope=Hill coefficient; and IC50=concentration of compound with 50% inhibition in relation to top/neutral control (NC).
Representative compounds of the present invention were tested according to the procedure as described above, with results as listed in the Table below (n.d. means not determined).
A general note: In TR-FRET formats the signal depends on donor and acceptor labels being close together.

In experiment [2] the test system is MOLP-8 human multiple myeloma cell line. Nature of the experiment: Caspase-Glo 3/7 apoptosis induction assay in MOLP-8 cells. The experiment is classed as cell-based. To be noted: caspase-3/7 activity, 2 hours at 37° C., averaged over all runs on all batches, read-out: MOLP8 AC50. The source says: MCL-1 is a regulator of apoptosis and is highly over-expressed in tumor cells that escape cell death. The assay evaluates the cellular potency of small-molecule compounds targeting regulators of the apoptosis pathway, primarily MCL-1, Bfl-1, Bcl-2, and other proteins of the Bcl-2 family. Protein-protein inhibitors disrupting the interaction of anti-apoptotic regulators with BH3-domain proteins initiate apoptosis.
The Caspase-Glo® 3/7 Assay is a luminescent assay that measures caspase-3 and -7 activities in purified enzyme preparations or cultures of adherent or suspension cells. The assay provides a proluminescent caspase-3/7 substrate, which contains the tetrapeptide sequence DEVD. This substrate is cleaved to release aminoluciferin, a substrate of luciferase used in the production of light. Addition of the single Caspase-Glo® 3/7 Reagent in an “add-mix-measure” format results in cell lysis, followed by caspase cleavage of the substrate and generation of a “glow-type” luminescent signal.
This assay uses the MOLP-8 human multiple myeloma cell line, which is sensitive to MCL-1 inhibition.
Cell cultures were maintained between 0.2 and 2.0×10^6 cells/mL. The cells were harvested by collection in 50 mL conical tubes. The cells were then pelleted at 500 g for 5 mins before removing supernatant and resuspension in fresh pre-warmed culture medium. The cells were counted and diluted as needed.
The assay reagent was prepared by transferring the buffer solution to the substrate vial and mixing. The solution may be stored for up to 1 week at 4° C. with negligible loss of signal.
Compounds were delivered in assay-ready plates (Proxiplate) and stored at −20° C.
Assays always include 1 reference compound plate containing reference compounds. The plates were spotted with 40 nL of compounds (0.5% DMSO final in cells; serial dilution; 30 μM highest conc. 1/3 dilution, 10 doses, duplicates). The compounds were used at room temperature and 4 μL of pre-warmed media was added to all wells except column 2 and 23. The negative control was prepared by adding 1% DMSO in media. The positive control was prepared by adding the appropriate positive control compound in final concentration of 60 μM in media. The plate was prepared by adding 4 μL negative control to column 23, 4 μL positive control to column 2, and 4 μL cell suspension to all wells in the plate. The plate with cells was then incubated at 37° C. for 2 hours. The assay signal reagent is the Caspase-Glo solution described above, and 8 μL was added to all wells. The plates were then sealed and measured after 30 minutes.
The activity of a test compound was calculated as percent change in apoptosis induction as follows: […]

As a reminder, the Ki is a measure of affinity in units of concentration, obtained from inhibition or displacement. As usually defined, the AC50 is the concentration at which the activity in the assay is half-maximal.

Where two headings read alike, the source gives them in different places.

As to `C[C@@H]1[C@@H](C)C/C=C(\F)C(OCCN2CCOCC2)[C@@H]2OCC[C@H]2CN2C[C@@]3(CCCc4cc(Cl)ccc43)COc3ccc(cc32)C(=O)NS1(=O)=O` (single isomer, unassigned) [Compound 4], the Ki in experiment [1] was found to be 0.192 nM. The AC50 in experiment [2] is 314 nM.

`C[C@@H]1[C@@H](C)C/C=C(\F)C(OCCN2CCOCC2)[C@@H]2OCC[C@H]2CN2C[C@@]3(CCCc4cc(Cl)ccc43)COc3ccc(cc32)C(=O)NS1(=O)=O` (single isomer, unassigned) [Compound 5]: the Ki in experiment [1] was determined as 0.445 nM. Also, the AC50 in experiment [2] came out at 1100 nM.

For the molecule `COc1nn(C)cc1C(=O)NS1(=O)=NC(=O)c2ccc3c(c2)N(C[C@@H]2CCO[C@H]2C(OC)/C=C/C[C@H](C)C1)C[C@@]1(CCCc2cc(Cl)ccc21)CO3` (single isomer, unassigned) [Compound 8], the Ki in experiment [1] came to 0.0231 nM. Further, the AC50 in experiment [2] was found to be 34 nM.

As for `COc1nn(C)cc1C(=O)NS1(=O)=NC(=O)c2ccc3c(c2)N(C[C@@H]2CCO[C@H]2C(OC)/C=C/C[C@H](C)C1)C[C@@]1(CCCc2cc(Cl)ccc21)CO3` (single isomer, unassigned) [Compound 9], the Ki in experiment [1] came to 0.05 nM. Also, the AC50 in experiment [2] stood at 119 nM.

On to `COc1nn(C)cc1C(=O)NS1(=O)=NC(=O)c2ccc3c(c2)N(C[C@@H]2CCO[C@H]2C(OC)/C=C/C[C@H](C)C1)C[C@@]1(CCCc2cc(Cl)ccc21)CO3` (single isomer, unassigned) [Compound 10], for which, in experiment [1], the Ki turned out to be 0.401 nM. In experiment [2], the AC50 amounted to 453 nM.

For the molecule `COc1nn(C)cc1C(=O)NS1(=O)=NC(=O)c2ccc3c(c2)N(C[C@@H]2CCO[C@H]2C(OC)/C=C/C[C@H](C)C1)C[C@@]1(CCCc2cc(Cl)ccc21)CO3` (single isomer, unassigned) [Compound 11], the Ki in experiment [1] stood at 0.94 nM. In addition, the AC50 in experiment [2] was 1310 nM.

Take `COC1/C(F)=C/C[C@H](C)[C@@H](C)S(=O)(=O)NC(=O)c2cnc3c(n2)N(C[C@@H]2CCO[C@@H]12)C[C@@]1(CCCc2cc(Cl)ccc21)CO3` (single isomer, unassigned) [Compound 12]: the Ki in experiment [1] worked out at 5.23 nM. The AC50 in experiment [2] amounted to 1220 nM.

Regarding `COC1/C(F)=C/C[C@H](C)[C@@H](C)S(=O)(=O)NC(=O)c2cnc3c(n2)N(C[C@@H]2CCO[C@@H]12)C[C@@]1(CCCc2cc(Cl)ccc21)CO3` (single isomer, unassigned) [Compound 13], in experiment [1], the Ki came out at 35.5 nM. For the same molecule, the half-maximal activity concentration (AC50) in experiment [2] was found to be 15200 nM.

As for `C[C@@H]1[C@@H](C)C/C=C/C(CO)[C@@H]2OCC[C@H]2CN2C[C@@]3(CCCc4cc(Cl)ccc43)COc3ccc(cc32)C(=O)NS1(=O)=O` (single isomer, unassigned) [Compound 14], the Ki in experiment [1] is 0.521 nM. Moreover, the AC50 in experiment [2] turned out to be 1250 nM.

For the molecule `C[C@@H]1[C@@H](C)C/C=C/C(CO)[C@@H]2OCC[C@H]2CN2C[C@@]3(CCCc4cc(Cl)ccc43)COc3ccc(cc32)C(=O)NS1(=O)=O` (single isomer, unassigned) [Compound 15], in experiment [1], the inhibition constant (Ki) was 0.636 nM. The AC50 in experiment [2] came out at 2920 nM.

As to `COCCN(CCOC)CC1(OC)/C(F)=C/C[C@H](C)[C@@H](C)S(=O)(=O)NC(=O)c2ccc3c(c2)N(C[C@@H]2CCO[C@H]21)C[C@@]1(CCCc2cc(Cl)ccc21)CO3` (single isomer, unassigned) [Compound 18], in experiment [1], the Ki worked out at 0.096 nM. Further, the half-maximal activity concentration (AC50) in experiment [2] (Homo sapiens, MOLP-8, 2 h) was determined as 412 nM.

Consider `C[C@@H]1[C@@H](C)C/C=C/C(O)[C@@H]2OCC[C@H]2CN2C[C@@]3(CCCc4cc(Cl)ccc43)COc3ccc(cc32)C(=O)NS1(=O)=O` (single isomer, unassigned) [Compound 19], for which, in experiment [1], the Ki was determined as 0.717 nM. Besides, the AC50 in experiment [2] (Homo sapiens, MOLP-8, 2 h) was 752 nM.

On to `C[C@@H]1[C@@H](C)C/C=C/C(OCCN2CCOCC2)[C@@H]2OCC[C@H]2CN2C[C@@]3(CCCc4cc(Cl)ccc43)COc3ccc(cc32)C(=O)NS1(=O)=O` (single isomer, unassigned) [Compound 20], for which, in experiment [1], the inhibition constant Ki was found to be 0.223 nM. The AC50 in experiment [2] (Homo sapiens, MOLP-8, 2 h) was 616 nM.

Take `C[C@@H]1[C@@H](C)C/C=C(\F)C(O)(CC(=O)N(C)C)[C@@H]2OCC[C@H]2CN2C[C@@]3(CCCc4cc(Cl)ccc43)COc3ccc(cc32)C(=O)NS1(=O)=O` (single isomer, unassigned) [Compound 21]: the Ki in experiment [1] came out at 0.182 nM. Further, the AC50 in experiment [2] turned out to be 436 nM.

On to `C[C@@H]1[C@@H](C)C/C=C(\F)C(O)(CC(=O)N(C)C)[C@@H]2OCC[C@H]2CN2C[C@@]3(CCCc4cc(Cl)ccc43)COc3ccc(cc32)C(=O)NS1(=O)=O` (single isomer, unassigned) [Compound 22], for which the inhibitory constant (Ki) in experiment [1] stood at 0.981 nM. Further, the concentration at half-maximal activity (AC50) in experiment [2] worked out at 4830 nM.

Consider `COc1nn(C)cc1C(=O)NS1(=O)=NC(=O)c2ccc3c(c2)N(C[C@@H]2CCO[C@H]2C(OC)/C(F)=C/C[C@H](C)C1)C[C@@]1(CCCc2cc(Cl)ccc21)CO3` (single isomer, unassigned) [Compound 23], for which, in experiment [1], the Ki worked out at 0.25 nM. The AC50 in experiment [2] came to 2420 nM.

Take `COc1nn(C)cc1C(=O)NS1(=O)=NC(=O)c2ccc3c(c2)N(C[C@@H]2CCO[C@H]2C(OC)/C(F)=C/C[C@H](C)C1)C[C@@]1(CCCc2cc(Cl)ccc21)CO3` (single isomer, unassigned) [Compound 24]: the Ki in experiment [1] was 0.011 nM. Also, the AC50 in experiment [2] is 44 nM.

For `COc1nn(C)cc1C(=O)NS1(=O)=NC(=O)c2ccc3c(c2)N(C[C@@H]2CCO[C@H]2C(OC)/C(F)=C/C[C@H](C)C1)C[C@@]1(CCCc2cc(Cl)ccc21)CO3` (single isomer, unassigned) [Compound 25], the Ki in experiment [1] worked out at 0.025 nM. Further, the half-maximal activity concentration (AC50) in experiment [2] came out at 486 nM.

For the molecule `CO[C@@]1(CN2CCN3CCOC[C@@H]3C2)/C(F)=C/C[C@H](C)[C@@H](C)S(=O)(=O)NC(=O)c2ccc3c(c2)N(C[C@@H]2CCO[C@H]21)C[C@@]1(CCCc2cc(Cl)ccc21)CO3` [Compound 6], the concentration at half-maximal activity (AC50) in experiment [2] (Homo sapiens, MOLP-8, 2 h) turned out to be 69 nM.

For `CO[C@]1(CN2CCN3CCOC[C@@H]3C2)/C(F)=C/C[C@H](C)[C@@H](C)S(=O)(=O)NC(=O)c2ccc3c(c2)N(C[C@@H]2CCO[C@H]21)C[C@@]1(CCCc2cc(Cl)ccc21)CO3` [Compound 7], the AC50 in experiment [2] (Homo sapiens, MOLP-8, 2 h) was determined as 88 nM.

(Values after patent publication US20240239812A1, “MACROCYCLIC 2-ALLYLTETRAHYDROFURANS AS INHIBITORS OF MCL-1” (JANSSEN PHARMACEUTICA NV, priority 2021, published 2024).)
